The source of these data is patent US20080234368A9, “Therapeutic compositions and methods of use” (Trustees of Dartmouth College, priority 1998, published 2008).

Assay [1] deals with THP-1 monocytic leukemia line. The assay can be described thus: Differentiation of leukemia cells (data not shown). Conditions: by itself or in combination with TGF-β1. The class given is cell-based, human.
The test system of assay [2] is NO production in primary macrophages. The assay can be described thus: Suppression of NO production in primary macrophages (FIG. 14C). The format is cell-based, mouse. Conditions: levels as low as 10^−9 M; IFN-γ 10 ng/ml, 48 h. The protocol:
(§1) FIG. 14(A) illustrates Western blots; primary mouse macrophages; IFN-γ, 10 ng/ml; LPS, 2 ng/ml were added to cultures together with triterpenoids or dexamethasone (concentrations shown as […]); cells were harvested at 12 h. FIG. 14(B) illustrates Northern blots, RAW 264.7 macrophage-like cell line. IFN-γ, 10 ng/ml; LPS, 1 ng/ml; TNF-α, 10 ng/ml, were added to cultures together with CDDO or dexamethasone. RNA prepared after 12 h; GAPDH used as a loading control. FIG. 14(C) illustrates suppression of production of NO and PGEF in primary macrophages. For NO studies, cells were treated with IFN-γ, 10 ng/ml, together with CDDO (M), dexamethasone (O), TP-82 (□), or oleanolic acid (A). After 48 h, supernatants were analyzed for NO by the Griess reaction. For PGEF studies, cells were treated with IFN-γ, 5 ng/ml, and LPS, 5 ng/ml, together with the same set of inhibitors. After 48 h, PGE was measured in supernatants by immunoassay. Control values (no inhibition) for NO and PGE2 were 4.7 nmol/[…] and 2.2 ng/ml/2×10^5 cells, respectively. FIGS. (14D) and (14E) illustrate (human colon myofibroblasts) ^18Co cells grown in MEM/10% FBS; other methods are the same as reported above for macrophages. FIG. 14(D) illustrates Northern blots showing dose-response for suppression of COX-2 mRNA after induction with IL-1β (30 pg/ml). CDDO was added together with IL-1. […]

Another assay has as its system iNOS. In words: Western blot for iNOS protein in stimulated primary macrophages. Conditions: concentrations of 1 μM or less; IFN-γ 10 ng/ml, LPS 2 ng/ml, 12 h. The format is cell-based, mouse. The protocol: as §1
On the technique in general: A western blot detects proteins with antibodies after separation by electrophoresis.

The next assay has as its target T1, iNOS enzymatic activity (Mus musculus, UniProt P29477).
T1 construct: added to RAW cells in which synthesis of these two enzymes has already been induced; endogenous in cells; host or cells: RAW 264.7 mouse macrophage-like cells, enzyme synthesis pre-induced
In words: NO production in RAW cells with enzyme synthesis already induced. Conditions: added after enzyme synthesis induced; data not shown. The format is cell-based. An excerpt: These effects of CDDO have been seen in primary mouse macrophages, a mouse macrophage-like tumor cell line (RAW 264.7), and in non-neoplastic human colon fibroblasts. […] Neither iNOS nor COX-2 expression can be detected in these cells until they are stimulated by an inflammatory mediator such as IFN-γ, or LPS. […] The above effects on INOS and COX-2 are also reflected in the cumulative production of their respective enzyme products, NO and PGE2, as measured in primary macrophages (FIG. 14C). […] Likewise, the actions of CDDO are not blocked by the glucocorticoid antagonist, RU-486, which is known to bind to the glucocorticoid receptor (data not shown). In these regards, CDDO is identical to the other oleanolic acid derivatives previously studied (Suh et al., 1998).

The subject of assay [3] is MDA-MB-231 ER negative breast carcinoma cells. In words: Inhibition of cell proliferation (3H-thymidine incorporation). The class given is cell-based, human. The settings on record: 3 or 4 days, 3H-thymidine 2 h. The protocol: (§2) All cells were obtained from ATCC, except as noted. They were grown under standard conditions in either DMEM, DMEM/F 12, or RPMI 1640 media plus 5-10% FBS. CDDO, over the dose range 10^−6 to 10^−10 M, was added to cultures at the time of seeding. Three or 4 days later, cells were treated with ^3H-thymidine for 2 h (12 h in the case of leukemia cells), and then incorporation was measured. “ER” means estrogen receptor.
Background: Dividing cells build labelled thymidine or BrdU into new DNA.

Assay [4] deals with AML193 acute myelocytic leukemia cells. Described as above. The class given is cell-based, human. The settings on record: 3 or 4 days, 3H-thymidine 12 h. The protocol:
as §2

The subject of assay [5] is KG-1 acute myeloid leukemia cells. The description is as above. The format is cell-based, human. The settings on record: 3 or 4 days, 3H-thymidine 12 h. The protocol: as §2
In assay [6] the test system is U937 monocytic leukemia cells. The description is as above. The settings on record: 3 or 4 days, 3H-thymidine 12 h. The format is cell-based, human. How it is done:
as §2

Assay [7] has as its system THP-1 monocytic leukemia cells. The assay is described as above. The class given is cell-based, human. Conditions: 3 or 4 days, 3H-thymidine 12 h. The protocol:
as §2

The subject of assay [8] is 21-MT-1 ER negative breast carcinoma cells. The assay is described as above. The settings on record: 3 or 4 days, 3H-thymidine 2 h. The class given is cell-based, human. The protocol:
as §2

The test system of another assay is A2058 melanoma cells. The description is as above. Conditions: 3 or 4 days, 3H-thymidine 2 h. The format is cell-based, human. How it is done:
as §2

Assay [9] deals with HL-60 myelocytic leukemia cells. The assay is described as above. Conditions: 3 or 4 days, 3H-thymidine 12 h. The class given is cell-based, human. The protocol:
as §2

For assay [10], the system named is NB4 promyelocytic leukemia cells. The assay is described as above. The format is cell-based, human. Conditions: 3 or 4 days, 3H-thymidine 12 h. How it is done:
as §2

Assay [11] deals with 21-MT-2 ER negative breast carcinoma cells. The assay is described as above. The class given is cell-based, human. Conditions: 3 or 4 days, 3H-thymidine 2 h. How it is done:
as §2

Assay [12] concerns ML-1 myeloblastic leukemia cells. Described as above. Conditions: 3 or 4 days, 3H-thymidine 12 h. The class given is cell-based, human. The protocol: as §2
The subject of assay [13] is 21-NT ER negative breast carcinoma cells. Described as above. The class given is cell-based, human. Conditions: 3 or 4 days, 3H-thymidine 2 h. The protocol: as §2
The subject of assay [14] is MCF-7 ER positive breast carcinoma cells. The description is as above. The format is cell-based, human. The settings on record: 3 or 4 days, 3H-thymidine 2 h. The protocol: as §2
Assay [15] deals with NT2/D1 embryonal carcinoma cells. The description is as above. The settings on record: 3 or 4 days, 3H-thymidine 2 h. The class given is cell-based, human. The protocol:
as §2

T1 sequence (P29477 whole entry): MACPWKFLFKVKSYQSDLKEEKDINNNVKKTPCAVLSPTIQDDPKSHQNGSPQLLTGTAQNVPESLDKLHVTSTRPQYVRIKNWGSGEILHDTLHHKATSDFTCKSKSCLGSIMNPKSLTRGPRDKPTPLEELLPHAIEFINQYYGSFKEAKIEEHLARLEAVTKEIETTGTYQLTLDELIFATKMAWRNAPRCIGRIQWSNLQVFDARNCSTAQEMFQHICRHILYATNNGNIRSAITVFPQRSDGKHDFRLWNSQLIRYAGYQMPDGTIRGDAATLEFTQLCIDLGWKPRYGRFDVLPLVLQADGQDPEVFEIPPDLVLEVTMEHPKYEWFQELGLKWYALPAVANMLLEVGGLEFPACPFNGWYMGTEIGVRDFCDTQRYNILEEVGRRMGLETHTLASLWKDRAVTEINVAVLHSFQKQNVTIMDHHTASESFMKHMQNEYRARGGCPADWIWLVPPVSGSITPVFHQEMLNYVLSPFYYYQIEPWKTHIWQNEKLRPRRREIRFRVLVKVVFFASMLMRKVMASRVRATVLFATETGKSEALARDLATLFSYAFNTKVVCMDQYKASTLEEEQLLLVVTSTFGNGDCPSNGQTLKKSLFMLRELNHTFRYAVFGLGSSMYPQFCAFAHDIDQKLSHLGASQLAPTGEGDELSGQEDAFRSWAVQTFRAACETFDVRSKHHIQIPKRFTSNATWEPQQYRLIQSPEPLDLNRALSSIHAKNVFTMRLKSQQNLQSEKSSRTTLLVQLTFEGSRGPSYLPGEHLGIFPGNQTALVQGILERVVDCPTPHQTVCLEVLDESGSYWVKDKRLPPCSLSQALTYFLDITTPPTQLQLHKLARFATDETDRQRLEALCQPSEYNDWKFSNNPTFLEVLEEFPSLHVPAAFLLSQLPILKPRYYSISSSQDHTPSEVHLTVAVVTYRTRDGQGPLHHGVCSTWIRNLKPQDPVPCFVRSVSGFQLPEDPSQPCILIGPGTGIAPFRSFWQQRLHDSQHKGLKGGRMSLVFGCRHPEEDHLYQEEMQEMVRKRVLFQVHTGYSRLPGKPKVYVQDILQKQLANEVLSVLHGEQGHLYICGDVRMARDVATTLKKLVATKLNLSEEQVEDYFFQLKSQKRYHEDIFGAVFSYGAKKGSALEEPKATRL

As to `CC1(C)CC[C@]2(C(=O)O)CC[C@]3(C)[C@H](C(=O)C=C4[C@@]5(C)C=C(C#N)C(=O)C(C)(C)[C@@H]5CC[C@]43C)[C@@H]2C1` [Compound 6, 2-cyano-3,12-dioxoolean-1,9-dien-28-oic acid], the differentiative effects entry in [1] is “differentiative effects”. The “inhibition of cumulative NO production” value in assay [2] is on record as “Significant inhibition”. In the assay on iNOS, the “expression of iNOS protein” value was “blocked expression”. In addition, the “immediate effect on NO production (direct inhibition of iNOS)” value at iNOS enzymatic activity was “no immediate effect”. The IC50 in assay [3] was 1000 nM; in [4], 400 nM; in [5] it was 200 nM; in assay [6], 200 nM; in assay [7], 50 nM; in assay [8] it was 200 nM. Also, the half-maximal inhibitory concentration (IC50) with A2058 melanoma cells came out at 200 nM; in [9], 100 nM; in assay [10] it was 40 nM; in assay [11] it was 300 nM; in assay [12] it was 100 nM; in [13] it was 1000 nM. Further, the values for the IC50 in assay [14] and in assay [15] were 30 nM and 100 nM, respectively.

By IC50 is commonly meant the point on the concentration scale where inhibition reaches its midpoint.
